# From publication PMC9250534, “Synthesis and direct assay of large macrocycle diversities by combinatorial late-stage modification at picomole scale” (Nature Communications, 2022)
# Molecular target: MDM2 (Homo sapiens, UniProt Q00987)
# Assay: MDM2 binding screen of Libraries 3 and 4: displacement of fluorescent probe F-M8 at 750 nM macrocycle
# Conditions: Panel b, Library 3: 63 scaffolds combinatorially acylated with 15 carboxylic acids at 30 picomole scale; displacement of fluorescent peptide probe; macrocycle 750 nM
# Outline: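 Competition with nutlin-3a was run using the fluorescein conjugate. Library members came from scaffolds reacted 6 h at room temperature with carboxylic acids (20 equiv.), HBTU and DABCO in DMSO. Quenching was overnight in Tris-Cl pH 7.4 buffer with 0.01% Tween20.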
# MDM2, sequence (Q00987 whole entry): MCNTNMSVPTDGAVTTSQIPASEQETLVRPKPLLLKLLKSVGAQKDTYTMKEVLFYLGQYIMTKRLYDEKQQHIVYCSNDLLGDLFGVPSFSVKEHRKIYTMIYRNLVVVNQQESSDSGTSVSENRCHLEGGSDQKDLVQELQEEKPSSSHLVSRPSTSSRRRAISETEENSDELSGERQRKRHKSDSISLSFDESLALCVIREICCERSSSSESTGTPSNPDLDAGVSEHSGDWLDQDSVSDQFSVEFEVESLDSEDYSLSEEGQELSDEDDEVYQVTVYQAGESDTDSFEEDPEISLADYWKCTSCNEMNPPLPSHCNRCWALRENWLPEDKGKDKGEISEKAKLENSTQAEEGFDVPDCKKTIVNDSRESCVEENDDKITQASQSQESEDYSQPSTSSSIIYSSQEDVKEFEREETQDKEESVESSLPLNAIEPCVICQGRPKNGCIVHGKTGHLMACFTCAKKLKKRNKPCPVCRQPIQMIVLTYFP
row,Structure (SMILES),fraction of fluorescent probe displaced
1,O=C1CCSSCCNC(=O)[C@@H](Cc2c[nH]c3ccccc23)NC(=O)CN(CCNC(=O)C2COc3ccccc3O2)C(=O)C2(CC2)CN1 (stereo partly drawn) [X-Amcp-N-Aeg-D-Trp + Acid 115],0.048
2,Cn1cc(C[C@@H]2NC(=O)CN(CCNC(=O)c3ccc4ccccc4c3)C(=O)C3(CC3)CNC(=O)CCSSCCNC2=O)c2ccccc21 [X-Amcp-N-Aeg-Me-Trp + Acid 107],-0.002
3,Cn1cc(C[C@@H]2NC(=O)CN(CCNC(=O)/C=C/c3ccc(OCc4ccccc4)cc3)C(=O)C3(CC3)CNC(=O)CCSSCCNC2=O)c2ccccc21 [X-Amcp-N-Aeg-Me-Trp + Acid 110],0.015
4,Cn1cc(C[C@@H]2NC(=O)CN(CCNC(=O)/C=C/c3ccc4ccccc4c3)C(=O)C3(CC3)CNC(=O)CCSSCCNC2=O)c2ccccc21 [X-Amcp-N-Aeg-Me-Trp + Acid 112],0.028
5,CN1C(=O)CN(CCNC(=O)c2ccc(Cl)cc2)C(=O)C2(CC2)CNC(=O)CCSSCCNC(=O)[C@@H]1Cc1c[nH]c2ccccc12 [X-Amcp-N-Aeg-NMe-Trp + Acid 25],-0.012
6,CN1C(=O)CN(CCNC(=O)/C=C/c2ccc(OCc3ccccc3)cc2)C(=O)C2(CC2)CNC(=O)CCSSCCNC(=O)[C@@H]1Cc1c[nH]c2ccccc12 [X-Amcp-N-Aeg-NMe-Trp + Acid 110],-0.00533
7,CN1C(=O)CN(CCNC(=O)/C=C/c2ccc3ccccc3c2)C(=O)C2(CC2)CNC(=O)CCSSCCNC(=O)[C@@H]1Cc1c[nH]c2ccccc12 [X-Amcp-N-Aeg-NMe-Trp + Acid 112],-0.019
8,O=C1CCSSCCNC(=O)[C@H](Cc2c[nH]c3ccccc23)NC(=O)CN(CCNC(=O)c2ccc(Cl)cc2)C(=O)C2(CC2)CN1 [X-Amcp-N-Aeg-Trp + Acid 25],0.00133
9,O=C1CCSSCCNC(=O)C(Cc2c[nH]c3ccccc23)NC(=O)CN(CCNC(=O)C2CC2c2ccccc2)C(=O)C2(CC2)CN1 (stereo not shown) [X-Amcp-N-Aeg-Trp + Acid 105],-0.015
10,O=C1CCSSCCNC(=O)[C@H](Cc2c[nH]c3ccccc23)NC(=O)CN(CCNC(=O)c2ccc3ccccc3c2)C(=O)C2(CC2)CN1 [X-Amcp-N-Aeg-Trp + Acid 107],0.018
11,CC(Oc1cccc(Cl)c1)C(=O)NCCN1CC(=O)N[C@@H](Cc2c[nH]c3ccccc23)C(=O)NCCSSCCC(=O)NCC2(CC2)C1=O (stereo partly shown) [X-Amcp-N-Aeg-Trp + Acid 113],0.035
12,O=C(/C=C/c1ccc(Cl)cc1)NC[C@H]1NC(=O)[C@@H]2CN(CCO2)C(=O)CCSSCCNC(=O)[C@H](Cc2cccc3ccccc23)NC1=O [X-Cop-D-Dap-1-NaI + Acid 108],0.028
13,O=C(NCC1NC(=O)C2CN(CCO2)C(=O)CCSSCCNC(=O)C(Cc2cccc3ccccc23)NC1=O)c1cccc(Oc2ccccc2)c1 [X-Cop-D-Dap-1-NaI + Acid 111],0.008
14,O=C(CCS(=O)(=O)c1ccccc1)NC[C@H]1NC(=O)[C@@H]2CN(CCO2)C(=O)CCSSCCNC(=O)[C@H](Cc2cccc3ccccc23)NC1=O [X-Cop-D-Dap-1-NaI + Acid 114],0.008
15,O=C(NC[C@H]1NC(=O)[C@@H]2CN(CCO2)C(=O)CCSSCCNC(=O)[C@H](Cc2ccc3ccccc3c2)NC1=O)c1ccc(Cl)s1 [X-Cop-D-Dap-2-Nal + Acid 14],-0.00533
16,O=C(NC[C@H]1NC(=O)[C@@H]2CN(CCO2)C(=O)CCSSCCNC(=O)[C@H](Cc2ccc3ccccc3c2)NC1=O)c1ccc(Cl)cc1 [X-Cop-D-Dap-2-Nal + Acid 25],0.00133
17,O=C(NCC1NC(=O)C2CN(CCO2)C(=O)CCSSCCNC(=O)C(Cc2ccc3ccccc3c2)NC1=O)c1ccc2ccccc2c1 [X-Cop-D-Dap-2-Nal + Acid 107],0.00455
18,O=C(C=Cc1ccc(OCc2ccccc2)cc1)NCC1NC(=O)C2CN(CCO2)C(=O)CCSSCCNC(=O)C(Cc2ccc3ccccc3c2)NC1=O [X-Cop-D-Dap-2-Nal + Acid 110],0.035
19,O=C(CCS(=O)(=O)c1ccccc1)NC[C@H]1NC(=O)[C@@H]2CN(CCO2)C(=O)CCSSCCNC(=O)[C@H](Cc2ccc3ccccc3c2)NC1=O [X-Cop-D-Dap-2-Nal + Acid 114],-0.00533
20,O=C(NC[C@H]1NC(=O)[C@@H]2CN(CCO2)C(=O)CCSSCCNC(=O)[C@H](Cc2c[nH]c3cc(Cl)ccc23)NC1=O)c1ccc(Cl)s1 [X-Cop-D-Dap-Cl-Trp + Acid 14],-0.00533
21,O=C(/C=C/c1ccc(OCc2ccccc2)cc1)NC[C@H]1NC(=O)[C@@H]2CN(CCO2)C(=O)CCSSCCNC(=O)[C@H](Cc2c[nH]c3cc(Cl)ccc23)NC1=O [X-Cop-D-Dap-Cl-Trp + Acid 110],0.035
22,O=C(/C=C/c1ccc2ccccc2c1)NC[C@H]1NC(=O)[C@@H]2CN(CCO2)C(=O)CCSSCCNC(=O)[C@H](Cc2c[nH]c3cc(Cl)ccc23)NC1=O [X-Cop-D-Dap-Cl-Trp + Acid 112],0.055
23,O=C(/C=C/c1ccc(OCc2ccccc2)cc1)NC[C@H]1NC(=O)[C@@H]2CN(CCO2)C(=O)CCSSCCNC(=O)[C@@H](Cc2c[nH]c3ccccc23)NC1=O [X-Cop-D-Dap-D-Trp + Acid 110],0.015
24,O=C(/C=C/c1ccc2ccccc2c1)NC[C@H]1NC(=O)[C@@H]2CN(CCO2)C(=O)CCSSCCNC(=O)[C@@H](Cc2c[nH]c3ccccc23)NC1=O [X-Cop-D-Dap-D-Trp + Acid 112],0.021
25,CC(Oc1cccc(Cl)c1)C(=O)NCC1NC(=O)C2CN(CCO2)C(=O)CCSSCCNC(=O)C(Cc2c[nH]c3ccccc23)NC1=O [X-Cop-D-Dap-D-Trp + Acid 113],0.008
26,Cn1cc(C[C@@H]2NC(=O)[C@@H](CNC(=O)c3ccc(Cl)s3)NC(=O)[C@@H]3CN(CCO3)C(=O)CCSSCCNC2=O)c2ccccc21 [X-Cop-D-Dap-Me-Trp + Acid 14],-0.00533
27,Cn1cc(C[C@@H]2NC(=O)[C@@H](CNC(=O)c3ccc4ccccc4c3)NC(=O)[C@@H]3CN(CCO3)C(=O)CCSSCCNC2=O)c2ccccc21 [X-Cop-D-Dap-Me-Trp + Acid 107],0.050

# More lines, now with the values ahead:
row,fraction of fluorescent probe displaced,Structure (SMILES)
1,0.008,O=C(/C=C/c1ccc2ccccc2c1)NCCN1CC(=O)N[C@H](Cc2c[nH]c3ccccc23)C(=O)NCCSSCCC(=O)NCC2(CC2)C1=O [X-Amcp-N-Aeg-D-Trp + Acid 112]
2,0.00133,CC(Oc1cccc(Cl)c1)C(=O)NCCN1CC(=O)N[C@H](Cc2c[nH]c3ccccc23)C(=O)NCCSSCCC(=O)NCC2(CC2)C1=O (stereo partly drawn) [X-Amcp-N-Aeg-D-Trp + Acid 113]
3,0.055,O=C(CCS(=O)(=O)c1ccccc1)NCCN1CC(=O)N[C@H](Cc2c[nH]c3ccccc23)C(=O)NCCSSCCC(=O)NCC2(CC2)C1=O [X-Amcp-N-Aeg-D-Trp + Acid 114]
4,-0.00533,Cn1cc(C[C@@H]2NC(=O)CN(CCNC(=O)c3ccc(Cl)s3)C(=O)C3(CC3)CNC(=O)CCSSCCNC2=O)c2ccccc21 [X-Amcp-N-Aeg-Me-Trp + Acid 14]
5,-0.012,Cn1cc(C[C@@H]2NC(=O)CN(CCNC(=O)c3ccc(Cl)cc3)C(=O)C3(CC3)CNC(=O)CCSSCCNC2=O)c2ccccc21 [X-Amcp-N-Aeg-Me-Trp + Acid 25]
6,0.015,Cn1cc(C[C@@H]2NC(=O)CN(CCNC(=O)c3cccc(Oc4ccccc4)c3)C(=O)C3(CC3)CNC(=O)CCSSCCNC2=O)c2ccccc21 [X-Amcp-N-Aeg-Me-Trp + Acid 111]
7,-0.012,CN1C(=O)CN(CCNC(=O)c2ccc(Cl)s2)C(=O)C2(CC2)CNC(=O)CCSSCCNC(=O)[C@@H]1Cc1c[nH]c2ccccc12 [X-Amcp-N-Aeg-NMe-Trp + Acid 14]
8,0.031,CN1C(=O)CN(CCNC(=O)c2ccc3ccccc3c2)C(=O)C2(CC2)CNC(=O)CCSSCCNC(=O)[C@@H]1Cc1c[nH]c2ccccc12 [X-Amcp-N-Aeg-NMe-Trp + Acid 107]
9,0.00133,CN1C(=O)CN(CCNC(=O)c2cccc(Oc3ccccc3)c2)C(=O)C2(CC2)CNC(=O)CCSSCCNC(=O)[C@@H]1Cc1c[nH]c2ccccc12 [X-Amcp-N-Aeg-NMe-Trp + Acid 111]
10,0.015,O=C(/C=C/c1ccc(OCc2ccccc2)cc1)NCCN1CC(=O)N[C@@H](Cc2c[nH]c3ccccc23)C(=O)NCCSSCCC(=O)NCC2(CC2)C1=O [X-Amcp-N-Aeg-Trp + Acid 110]
11,0.041,O=C(/C=C/c1ccc2ccccc2c1)NCCN1CC(=O)N[C@@H](Cc2c[nH]c3ccccc23)C(=O)NCCSSCCC(=O)NCC2(CC2)C1=O [X-Amcp-N-Aeg-Trp + Acid 112]
12,0.021,O=C(CCS(=O)(=O)c1ccccc1)NCCN1CC(=O)N[C@@H](Cc2c[nH]c3ccccc23)C(=O)NCCSSCCC(=O)NCC2(CC2)C1=O [X-Amcp-N-Aeg-Trp + Acid 114]
13,0.048,O=C(/C=C/c1ccc(OCc2ccccc2)cc1)NC[C@H]1NC(=O)[C@@H]2CN(CCO2)C(=O)CCSSCCNC(=O)[C@H](Cc2cccc3ccccc23)NC1=O [X-Cop-D-Dap-1-NaI + Acid 110]
14,0.008,CC(Oc1cccc(Cl)c1)C(=O)NC[C@H]1NC(=O)[C@@H]2CN(CCO2)C(=O)CCSSCCNC(=O)[C@H](Cc2cccc3ccccc23)NC1=O (stereo partly drawn) [X-Cop-D-Dap-1-NaI + Acid 113]
15,0.00133,O=C(NC[C@H]1NC(=O)[C@@H]2CN(CCO2)C(=O)CCSSCCNC(=O)[C@H](Cc2ccc3ccccc3c2)NC1=O)c1cccc(Oc2ccccc2)c1 [X-Cop-D-Dap-2-Nal + Acid 111]
16,0.021,O=C(/C=C/c1ccc2ccccc2c1)NC[C@H]1NC(=O)[C@@H]2CN(CCO2)C(=O)CCSSCCNC(=O)[C@H](Cc2ccc3ccccc3c2)NC1=O [X-Cop-D-Dap-2-Nal + Acid 112]
